The source made the active and inactive calls. The rule behind the calls is not given here.
Legend:
Helianthus annuus [1] = assay: Post-emergence growth inhibition of Helianthus annuus (sunflower) after 9 days; assay type: functional
Avena fatua [2] = assay: Pre-emergence growth inhibition of Avena fatua assessed as visual injury at 0.5 kg/ha after 16 days relative to control; assay type: functional; design: scale not given: the % may be the effect or the level left
Ipomoea hederacea [3] = assay: Herbicidal activity against Ipomoea hederacea (ivy-leaved morning glory) assessed as visual injury at 10 ug/seedling applied to cotyledon after 1 week relative to control; assay type: functional
Ipomoea hederacea [4] = assay: Herbicidal activity against Ipomoea hederacea (ivy-leaved morning glory) assessed as visual injury at 100 ug/seedling applied to cotyledon after 1 week relative to control; assay type: functional
Ipomoea hederacea [5] = assay: Herbicidal activity against Ipomoea hederacea (ivy-leaved morning glory) assessed as visual injury at 1 ug/seedling applied to meristem after 1 week relative to control; assay type: functional
Ipomoea hederacea [6] = assay: Herbicidal activity against Ipomoea hederacea (ivy-leaved morning glory) assessed as visual injury at 10 ug/seedling applied to meristem after 1 week relative to control; assay type: functional
Helianthus annuus [7] = assay: Herbicidal activity against Helianthus annuus (sunflower) assessed as visual injury at 10 ug/seedling applied to cotyledon after 1 week relative to control; assay type: functional
Helianthus annuus [8] = assay: Herbicidal activity against Helianthus annuus (sunflower) assessed as visual injury at 100 ug/seedling applied to cotyledon after 1 week relative to control; assay type: functional
Helianthus annuus [9] = assay: Herbicidal activity against Helianthus annuus (sunflower) assessed as visual injury at 1 ug/seedling applied to meristem after 1 week relative to control; assay type: functional
Abutilon theophrasti [10] = assay: Herbicidal activity against Abutilon theophrasti (velvetleaf) assessed as visual injury at 10 ug/seedling applied to leaf after 1 week relative to control; assay type: functional
Abutilon theophrasti [11] = assay: Herbicidal activity against Abutilon theophrasti (velvetleaf) assessed as visual injury at 10 ug/seedling applied to meristem after 1 week relative to control; assay type: functional
Echinochloa crus-galli [12] = assay: Pre-emergence herbicidal activity against Echinochloa crus-galli (barnyard grass) assessed as meristematic at 0.5 to 4 kg/ha after 16 days; assay type: functional, organism-based
Ipomoea hederacea [13] = assay: Pre-emergence herbicidal activity against Ipomoea hederacea (ivy-leaved morning glory) assessed as meristematic at 0.5 to 4 kg/ha after 16 days; assay type: functional, organism-based
Avena fatua [14] = assay: Pre-emergence growth inhibition of Avena fatua assessed as stunting at 0.5 to 4 kg/ha after 16 days; assay type: functional, organism-based
Ipomoea hederacea [15] = assay: Pre-emergence herbicidal activity against Ipomoea hederacea (ivy-leaved morning glory) assessed as stunting at 0.5 to 4 kg/ha after 16 days; assay type: functional, organism-based
Echinochloa crus-galli [16] = assay: Pre-emergence herbicidal activity against Echinochloa crus-galli (barnyard grass) assessed as stunting at 0.5 to 4 kg/ha after 16 days; assay type: functional, organism-based
Ipomoea hederacea [17] = assay: Pre-emergence herbicidal activity against Ipomoea hederacea (ivy-leaved morning glory) after 16 days; assay type: functional
Echinochloa crus-galli [18] = assay: Post-emergence herbicidal activity against Echinochloa crus-galli (barnyard grass) assessed as wilting at 0.5 to 4 kg/ha after 9 days; assay type: functional, organism-based
Avena fatua [19] = assay: Post-emergence growth inhibition of Avena fatua assessed as meristematic at 0.5 to 4 kg/ha after 9 days; assay type: functional, organism-based
Ipomoea hederacea [20] = assay: Post-emergence herbicidal activity against Ipomoea hederacea (ivy-leaved morning glory) assessed as meristematic at 0.5 to 4 kg/ha after 9 days; assay type: functional, organism-based
Helianthus annuus [21] = assay: Post-emergence growth inhibition of Helianthus annuus (sunflower) assessed as meristematic at 0.5 to 4 kg/ha after 9 days; assay type: functional, organism-based
Ipomoea hederacea [22] = assay: Post-emergence herbicidal activity against Ipomoea hederacea (ivy-leaved morning glory) assessed as stunting at 0.5 to 4 kg/ha after 9 days; assay type: functional, organism-based
Echinochloa crus-galli [23] = assay: Pre-emergence herbicidal activity against Echinochloa crus-galli (barnyard grass) assessed as visual injury at 4 kg/ha after 16 days relative to control; assay type: functional
Ipomoea hederacea [24] = assay: Pre-emergence herbicidal activity against Ipomoea hederacea (ivy-leaved morning glory) assessed as visual injury at 1 kg/ha after 16 days relative to control; assay type: functional
Arabidopsis thaliana = assay: Growth inhibition of Arabidopsis thaliana var. Columbia assessed as stunting after 9 days by agarose-based test; assay type: functional, organism-based
[25] = system: Agrostis stolonifera var. palustris; assay: Herbicidal activity against Agrostis stolonifera var. palustris after 9 days by agarose-based test; assay type: functional
Lemna minor [26] = assay: Herbicidal activity against Lemna minor (common duckweed) after 9 days; assay type: functional
[27] = system: Agrostis stolonifera var. palustris; assay: Herbicidal activity against Agrostis stolonifera var. palustris after 9 days; assay type: functional
Lemna minor [28] = assay: Herbicidal activity against Lemna minor (common duckweed) assessed as visual injury at 0.04 ppm after 9 days relative to control; assay type: functional
Lemna minor [29] = assay: Herbicidal activity against Lemna minor (common duckweed) assessed as visual injury at 25 ppm after 9 days relative to control; assay type: functional
[30] = system: Agrostis stolonifera var. palustris; assay: Herbicidal activity against Agrostis stolonifera var. palustris assessed as visual injury at 0.008 ppm after 9 days relative to control; assay type: functional
[31] = system: Agrostis stolonifera var. palustris; assay: Herbicidal activity against Agrostis stolonifera var. palustris assessed as visual injury at 1 ppm after 9 days relative to control; assay type: functional
[32] = system: Agrostis stolonifera var. palustris; assay: Herbicidal activity against Agrostis stolonifera var. palustris assessed as visual injury at 25 ppm after 9 days relative to control; assay type: functional
[33] = system: Agrostis stolonifera var. palustris; assay: Herbicidal activity against Agrostis stolonifera var. palustris assessed as visual injury at 5 ppm after 9 days relative to control; assay type: functional
[34] = system: Agrostis stolonifera var. palustris; assay: Herbicidal activity against Agrostis stolonifera var. palustris assessed as visual injury at 0.2 ppm after 9 days relative to control; assay type: functional
[35] = system: Agrostis stolonifera var. palustris; assay: Herbicidal activity against Agrostis stolonifera var. palustris assessed as visual injury at 0.04 ppm after 9 days relative to control; assay type: functional
Echinochloa crus-galli [36] = assay: Pre-emergence herbicidal activity against Echinochloa crus-galli (barnyard grass) assessed as visual injury at 2 kg/ha after 16 days relative to control; assay type: functional
Ipomoea hederacea [37] = assay: Pre-emergence herbicidal activity against Ipomoea hederacea (ivy-leaved morning glory) assessed as visual injury at 2 kg/ha after 16 days relative to control; assay type: functional
Avena fatua [38] = assay: Post-emergence growth inhibition of Avena fatua assessed as visual injury at 1 kg/ha after 9 days relative to control; assay type: functional; design: scale not given: the % may be the effect or the level left
Avena fatua [39] = assay: Post-emergence growth inhibition of Avena fatua assessed as visual injury at 2 kg/ha after 9 days relative to control; assay type: functional; design: scale not given: the % may be the effect or the level left
Echinochloa crus-galli [40] = assay: Post-emergence herbicidal activity against Echinochloa crus-galli (barnyard grass) assessed as visual injury at 0.5 kg/ha after 9 days relative to control; assay type: functional
Echinochloa crus-galli [41] = assay: Post-emergence herbicidal activity against Echinochloa crus-galli (barnyard grass) assessed as visual injury at 4 kg/ha after 9 days relative to control; assay type: functional
Ipomoea hederacea [42] = assay: Post-emergence herbicidal activity against Ipomoea hederacea (ivy-leaved morning glory) assessed as visual injury at 1 kg/ha after 9 days relative to control; assay type: functional
Ipomoea hederacea [43] = assay: Post-emergence herbicidal activity against Ipomoea hederacea (ivy-leaved morning glory) assessed as visual injury at 4 kg/ha after 9 days relative to control; assay type: functional
Helianthus annuus [44] = assay: Post-emergence growth inhibition of Helianthus annuus (sunflower) assessed as visual injury at 1 kg/ha after 9 days relative to control; assay type: functional; design: scale not given: the % may be the effect or the level left
Helianthus annuus [45] = assay: Post-emergence growth inhibition of Helianthus annuus (sunflower) assessed as visual injury at 2 kg/ha after 9 days relative to control; assay type: functional; design: scale not given: the % may be the effect or the level left
[46] = system: Agrostis stolonifera var. palustris; assay: Herbicidal activity against Agrostis stolonifera var. palustris assessed as root tip puffing after 9 days by agarose-based test; assay type: functional, organism-based
Avena fatua [47] = assay: Pre-emergence growth inhibition of Avena fatua assessed as visual injury at 4 kg/ha after 16 days relative to control; assay type: functional; design: scale not given: the % may be the effect or the level left
Echinochloa crus-galli [48] = assay: Pre-emergence herbicidal activity against Echinochloa crus-galli (barnyard grass) assessed as visual injury at 1 kg/ha after 16 days relative to control; assay type: functional

Compound `CN1C(=O)[C@](O)(Cc2cccc(O)c2)N(C)C(=O)[C@@H]1Cc1c[nH]c2cccc([N+](=O)[O-])c12` [THAXTOMIN A] has a GR50 (Helianthus annuus [1]) of less than 500 g/ha, an Activity (Avena fatua [2]) of 100% and an Activity (Ipomoea hederacea [3]) of 0%. It also gave an Activity (Ipomoea hederacea [4]) of 0%, an Activity (Ipomoea hederacea [5]) of 75% and an Activity (Ipomoea hederacea [6]) of 80%. For the same compound, the Activity (Helianthus annuus [7]) was 0%, the Activity (Helianthus annuus [8]) was 0% and the Activity (Helianthus annuus [9]) was 50%. The Activity (Abutilon theophrasti [10]) was 0%, the Activity (Abutilon theophrasti [11]) was 75% and the Activity (Echinochloa crus-galli [12]) was “Active”. For the same compound, the Activity (Ipomoea hederacea [13]) was “Active”, the Activity (Avena fatua [14]) was “Active” and the Activity (Ipomoea hederacea [15]) was “Active”. For the same compound, the Activity (Echinochloa crus-galli [16]) was “Active”, the GR50 (Ipomoea hederacea [17]) was less than 500 g/ha and the Activity (Echinochloa crus-galli [18]) was “Active”. The Activity (Avena fatua [19]) was “Active”, the Activity (Ipomoea hederacea [20]) was “Active” and the Activity (Helianthus annuus [21]) was “Active”. For the same compound, the Activity (Ipomoea hederacea [22]) was “Active”, the Activity (Echinochloa crus-galli [23]) was 100% and the Activity (Ipomoea hederacea [24]) was 100%. For the same compound, the “growth inhibition (GI)” value (Arabidopsis thaliana) was “Active”, the I50 [25] was 25 ppb and the GR50 (Lemna minor [26]) was 5 ppb. For the same compound, the GR50 [27] was 12 ppb, the Activity (Lemna minor [28]) was 70% and the Activity (Lemna minor [29]) was 100%. The Activity [30] was 50%, the Activity [31] was 100% and the Activity [32] was 100%. The Activity [33] was 100%, the Activity [34] was 100% and the Activity [35] was 80%. The Activity (Echinochloa crus-galli [36]) was 100%, the Activity (Ipomoea hederacea [37]) was 100% and the Activity (Avena fatua [38]) was 30%. For the same compound, the Activity (Avena fatua [39]) was 20%, the Activity (Echinochloa crus-galli [40]) was 10% and the Activity (Echinochloa crus-galli [41]) was 85%. For the same compound, the Activity (Ipomoea hederacea [42]) was 80%, the Activity (Ipomoea hederacea [43]) was 85% and the Activity (Helianthus annuus [44]) was 85%. The Activity (Helianthus annuus [45]) was 85%, the Activity [46] was “Active” and the Activity (Avena fatua [47]) was 100%. For the same compound, the Activity (Echinochloa crus-galli [48]) was 98%.
